Laboratory results as given in US6521814B1, “Use of ligands for treatment of diseases responsive to retinoids” (Institut National de la Santa et de la Recherche Medicale, priority 1997, dated 2003).

What was measured:
RXRα−/− F9 cells [1] = assay: Apoptosis of F9 cells (Hoechst 33258 staining, FACS); type: cell-based, murine; details: 1 μM
RXRα−/−/RARα−/− F9 cells [2] = assay: Morphological differentiation of F9 cell aggregates into visceral endoderm (VE)-like cells (morphology, RT-PCR of markers); type: cell-based, murine; details: 50 nM
From the text: (§1) Transcript levels were quantified using a BAS 2000 bioimaging analyzer (Fuji Ltd., Tokyo, Japan), and were normalized to the corresponding 36B4 signals.

RXRα−/−/RARγ−/− F9 cells [3] = assay: as above; type: cell-based, murine
From the text: as §1

RXRα−/− F9 cells [4] = assay: as above; type: cell-based, murine; details: 50 nM, 10 d
From the text: as §1

RARα−/− F9 cells [5] = assay: Apoptosis of F9 cells (Hoechst 33258 staining, FACS); type: cell-based, murine; details: 1 μM, 6 d
Description: (§2) Apoptosis was analyzed by both Hoechst staining of nuclei and FACS® analysis, as previously described (Clifford, J., et al., EMBO J. 15:4142-4155 (1996)).

RARγ−/− F9 cells [6] = assay: as above; type: cell-based, murine; details: 1 μM, 6 d
Description: as §2

WT F9 cells [7] = assay: as above; type: cell-based, murine; details: 1 μM
Description: as §2

RXRα−/−/RARα−/− F9 cells [8] = assay: as above; type: cell-based, murine; details: 1 μM
RXRα−/− F9 cells [9] = assay: Proliferation of F9 cells in monolayer culture (cell counting, [3H]thymidine incorporation, cell cycle FACS); type: cell-based, murine; details: 1 μM, 5 d
RARα−/− F9 cells [10] = assay: Morphological differentiation of F9 cell aggregates into visceral endoderm (VE)-like cells (morphology, RT-PCR of markers); type: cell-based, murine; details: 50 nM
From the text: (§3) Similarly, after 10 d of treatment, >80% of the outer layer of RARα^−/− and RXRα^−/−/RARα^−/− cell aggregates differentiated into VE-like cells, which were indistinguishable from those of WT and RXRα^−/− cells (FIG. 23A, compare f with panels b and d; and Table 9). […] To exclude the possibility that this very poor differentiation of the RXRα^−/−/RARγ^−/− cells could be due to some clonal variation, rather than the presence of the RXRα-null mutation in the RARγ-null background, we expressed the RXRα cDNA in RXRα^−/−/RARγ^−/− cells.
(§4) F9 cells were cultured and induced to differentiate into primitive, parietal and visceral endoderm-like cells as previously described (Boylan, J., et al., Proc. Natl. Acad. Sci. USA 90:9601-9605 (1993); Clifford, J., et al., EMBO J. 15:4142-4155 (1996)).
(§5) RNA preparation, RT-PCR, and Southern blotting were performed as previously described (Bouillet, P., et al., Dev. Biol. 170:420-433 (1995); Roy, B., et al., Mol. Cell. Biol. 15:6481-6487 (1995)). The PCR primers and end-labeled oligonucleotide probes for collagen IVα1, laminin B1, α-fetoprotein (AFP), and 36B4, were described previously (Clifford, J., et al ., EMBO J. 15:4142-4155 (1996)). Transcript levels were quantified using a BAS 2000 bioimaging analyzer (Fuji Ltd., Tokyo, Japan), and were normalized to the corresponding 36B4 signals.

WT F9 cells [11] = assay: as above; type: cell-based, murine; details: 50 nM, 10 d
From the text: as §3, §4, §5

RXRα−/−/RARα−/− F9 cells [12] = assay: Proliferation of F9 cells in monolayer culture (cell counting, [3H]thymidine incorporation, cell cycle FACS); type: cell-based, murine; details: 1 μM, 5 d
RXRα−/−/RARγ−/− F9 cells [13] = assay: as above; type: cell-based, murine; details: 1 μM
RARα = molecular target: T1, RARα (Mus musculus, UniProt P11416); assay: D2R promoter CAT reporter assay in COS-1 cells cotransfected with RARα expression vector; type: cell-based; details: 0.1 μM
T1 construct: expressed in transfected cells; host or cells: COS-1
T1 sequence (P11416 1-462): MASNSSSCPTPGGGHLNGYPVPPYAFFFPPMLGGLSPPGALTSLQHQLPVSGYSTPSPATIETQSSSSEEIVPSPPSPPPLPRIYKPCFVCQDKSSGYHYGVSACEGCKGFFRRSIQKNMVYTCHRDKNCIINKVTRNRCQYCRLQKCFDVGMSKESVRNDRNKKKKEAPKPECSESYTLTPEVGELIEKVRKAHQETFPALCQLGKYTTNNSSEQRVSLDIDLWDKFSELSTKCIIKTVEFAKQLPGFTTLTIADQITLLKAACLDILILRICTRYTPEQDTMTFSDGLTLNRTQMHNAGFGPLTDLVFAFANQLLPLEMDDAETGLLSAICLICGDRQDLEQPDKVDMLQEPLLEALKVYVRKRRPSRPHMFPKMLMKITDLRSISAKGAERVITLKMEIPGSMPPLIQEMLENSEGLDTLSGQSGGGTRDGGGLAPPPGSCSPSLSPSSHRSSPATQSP
From the text: The C1 reporter construct was obtained by subcloning the HindIII fragment spanning the 5 ′ promoter region of the D2R gene (positions −495 to +273), in the reporter plasmid pBLCAT3 (Luckow, B. & Schütz, G., Nucleic Acids Res. 15:5490 (1987)). The C2 reporter plasmid was constructed by subcloning the SmaI-XhoI fragment (positions −76 to +273) in the same position. The C3 and C4 reporters were generated by cloning a 29 bp synthetic oligonucleotide corresponding, respectively, to the natural rat D2R RARE sequence and the mutated one into pBLCAT2 (Luckow, B. & Schütz, G., Nucleic Acids Res. 15:5490 (1987)). The polylinker in pBLCAT2 is located upstream of the herpes simplex virus 1 (HSV1) thymidine kinase (TK) promoter, from position −105 to +51. To measure transfection efficiency the plasmid pCH110 carrying the β-galactosidase gene (Pharmacia) was used. Mouse RARβ, β and γ, as well as mouse RXRα, β and γ expression vectors were derived from the parental pSG5 vector (Green, S., et al., Nucleic Acids Res. 16:369 (1988)).
COS-1 cells were used for transient transfection assays. Cells were grown in Dulbecco's modified Eagle's medium supplemented with 5% fetal calf serum.
Several hours before transfection, the medium was replaced with fresh medium containing 5% charcoal-treated FCS. […]

RARα−/− F9 cells [14] = assay: Differentiation of F9 cells into primitive and parietal endoderm-like cells in monolayer (morphology, RT-PCR of collagen type IVα1 and laminin B1); type: cell-based, murine; details: 1 μM, 48 h
Description: (§6) The differentiation patterns of RXRα^−/−/RARα^−/−and RXRα^−/−/RARγ^−/− cells were compared with those of WT and single knockout cell lines.
as §4, §5

RARγ−/− F9 cells [15] = assay: as above; type: cell-based, murine; details: 1 μM, 48 h
Description: as §6, §4, §5

Structure (SMILES): CC1=C(/C=C/C(C)=C/C=C/C(C)=C/C(=O)O)C(C)(C)CCC1 [tRA, all-trans retinoic acid]
- proportion of apoptotic nuclei and subcellular fragments (Hoechst 33258) (RXRα−/− F9 cells [1]; 6 d): ± (<1%)
- sub-2N size DNA-containing particles ('apoptotic bodies'), FACS (RXRα−/− F9 cells [1]; after 5 d): not detected
- induction of collagen type IVα1, laminin B1 and AFP mRNA (RXRα−/−/RARα−/− F9 cells [2]; RXRα−/−/RARα−/− aggregates, 10 d): similarly induced
- proportion of outer layer of cells displaying VE morphology (RXRα−/−/RARα−/− F9 cells [2]; RXRα−/−/RARα−/−, 10 d): +++ (more than 80%)
- outer layer of cell aggregates differentiated into VE-like cells (RXRα−/−/RARα−/− F9 cells [2]; RXRα−/−/RARα−/−, after 10 d): > 80%
- induction of collagen IVα1, laminin B1 or AFP mRNA (RXRα−/−/RARγ−/− F9 cells [3]; RXRα−/−/RARγ−/− aggregates, 50 nM, 10 d): no induction
- surface of the aggregates (RXRα−/−/RARγ−/− F9 cells [3]; RXRα−/−/RARγ−/−, 50 nM, after 10 days): as smooth after 10 days of treatment as in untreated controls
- aggregates displaying only a spotty VE conversion (RXRα−/−/RARγ−/− F9 cells [3]; RXRα−/−/RARγ−/−, after 12 or 18 d of treatment): < 10%
- proportion of outer layer of cells displaying VE morphology (RXRα−/− F9 cells [4]): +++ (more than 80%)
- proportion of apoptotic nuclei and subcellular fragments (Hoechst 33258) (RARα−/− F9 cells [5]): ++ (>10%)
- proportion of apoptotic nuclei and subcellular fragments (Hoechst 33258) (RARγ−/− F9 cells [6]): + (>1-10%)
- proportion of apoptotic nuclei and subcellular fragments (Hoechst 33258) (WT F9 cells [7]; 6 d): ++ (>10%)
- sub-2N size DNA-containing particles ('apoptotic bodies'), FACS (WT F9 cells [7]; after 5 d): appeared
- proportion of apoptotic nuclei and subcellular fragments (Hoechst 33258) (RXRα−/−/RARα−/− F9 cells [8]; 6 d): ± (<1%)
- sub-2N size DNA-containing particles ('apoptotic bodies'), FACS (RXRα−/−/RARα−/− F9 cells [8]; after 5 d): not detected
- proportion of cells in the G0 and G1 phases (FACS) (RXRα−/− F9 cells [9]): 38%
- proportion of outer layer of cells displaying VE morphology (RARα−/− F9 cells [10]; 10 d): +++ (more than 80%)
- outer layer of cell aggregates differentiated into VE-like cells (RARα−/− F9 cells [10]; after 10 d): > 80%
- induction of collagen type IVα1, laminin B1 and AFP mRNA (WT F9 cells [11]; WT aggregates): similarly induced
- proportion of outer layer of cells displaying VE morphology (WT F9 cells [11]; WT): +++ (more than 80%)
- proportion of cells in the G0 and G1 phases (FACS) (RXRα−/−/RARα−/− F9 cells [12]): 40%
- inhibition of [3H]thymidine incorporation (RXRα−/−/RARγ−/− F9 cells [13]; 4 d): no inhibition
- cell cycle profile (FACS) (RXRα−/−/RARγ−/− F9 cells [13]; 5 d): not significantly affected
- effect on number of cells (cell counting) (RXRα−/−/RARγ−/− F9 cells [13]; 6 d): did not reduce, but slightly increased
- increase of CAT activity (RARα; C1 reporter + RARα expression vector): 16 fold
- increase of CAT activity (RARα; C2 reporter + RARα expression vector): 35 fold
- induction of collagen type IVα1 and laminin B1 mRNA compared to WT cells (RARα−/− F9 cells [14]): not altered
- induction of collagen type IVα1 mRNA, lower level compared to WT cells (RARγ−/− F9 cells [15]): 10 fold
- induction of laminin B1 mRNA, lower level compared to WT cells (RARγ−/− F9 cells [15]): 6 fold
